The subject of experiment [1] is Human immunodeficiency virus 1. The experiment in a line: Antiviral activity against HIV-1 infected in SUP-T1 cells assessed as inhibition of viral replication at MOI of 1 treated for 48 hrs by luciferase assay. The experiment is classed as functional, organism-based. The settings on record: Human immunodeficiency virus 1, SUP-T1, 48 h.
For experiment [2], the system named is Influenza A virus. Kind of experiment: Antiviral activity against Influenza A virus A/Puerto Rico/8/34(H1N1) strain infected in MDCK cells assessed as inhibition of viral infection incubated for 60 mins by CPE inhibition assay. The conditions noted are these: 1 h. The experiment is classed as functional, organism-based.
In experiment [3] the test system is Influenza A virus. Kind of experiment: Antiviral activity against Influenza A virus A/Puerto Rico/8/34(H1N1) strain infected in MDCK cells assessed as inhibition of viral infection by CPE inhibition assay. The experiment is classed as functional, organism-based.
Experiment [4] relates to Influenza A virus. The experiment in a line: Antiviral activity against Influenza A virus H3N2 subtype infected in MDCK cells assessed as inhibition of viral replication incubated for 48 hrs by CPE inhibition assay. The format is functional, organism-based.
Experiment [5] concerns Zika virus. Kind of experiment: Antiviral activity against ZIKV infected in A549 cells assessed as viral replication inhibition. The format is functional, organism-based.
Experiment [6] concerns Zika virus. The experiment in a line: Antiviral activity against ZIKV Z16019 infected in A549 cells assessed as inhibition in viral replication at MOI of 1 incubated for 1 hr by plaque assay. The experiment is classed as functional, organism-based. The settings on record: Z16019, A549, 1 h.
Experiment [7] deals with dengue virus type 2. The experiment in a line: Antiviral activity against DENV2 16681 infected in HEK293T/17 cells assessed as reduction in viral replication at MOI of 1 to 10 incubated for 24 hrs by standard plaque assay. The conditions noted are these: Dengue virus, 16681, HEK293T/17, 24 h. The format is functional, organism-based.
Experiment [8] relates to dengue virus type 2. The experiment in a line: Antiviral activity against DENV2 assessed as inhibition of viral replication by DENV RNA-dependent RNA polymerase assay. The experiment is classed as functional, organism-based.
Experiment [9] concerns Influenza A virus. Kind of experiment: Antiviral activity against Influenza A virus H1N1 subtype infected in MDCK cells assessed as inhibition of viral replication incubated for 48 hrs by CPE inhibition assay. The format is functional, organism-based.
The subject of experiment [10] is Hepatitis C virus. Kind of experiment: Antiviral activity against HCV J8CC. The format is functional, organism-based, Hepacivirus hominis.
Experiment [11] concerns dengue virus type 2. The experiment in a line: Antiviral activity against DENV2 00st-22A infected in Vero cells assessed as reduction in viral replication at MOI of 0.5 incubated for 48 hrs by focus-forming assay. The format is functional, organism-based.

Here are results for 20 molecules from ChEMBL document CHEMBL5230150, “Antiviral fungal metabolites and some insights into their contribution to the current COVID-19 pandemic” (Bioorg Med Chem, 2021).

The structures appear in SMILES notation. pEC50, pIC50: −log10 of the molar value. In brackets after ≈: the same amount, converted by molar mass. Square brackets hold non-standard residues; d marks the D form. Peptide text beside a SMILES is read from it. * marks the point of attachment. Pro(4R-Me) = C[C@H]1CN[C@H](C(=O)O)C1; Oleoyl = CCCCCCCC/C=C\CCCCCCCC(=O)*; hSer = N[C@@H](CCO)C(=O)O

As a reminder, the pIC50 is the IC50 on a negative log10 scale, so that one unit is a factor of ten. As usually defined, the IC50 is the concentration that gives 50% inhibition. Usually pEC50 stands for the EC50 on a negative log10 scale, so that one unit is a factor of ten.

For `C=C(CC[C@@H](C)[C@H]1CC=C2C3=C(CC[C@@]21C)[C@@]1(C)CC[C@H](O)C[C@@H]1CC3=O)C(C)C`, the pIC50 in experiment [1] was 5.46.
In the case of `CC[C@H](C)C(=O)[C@H]1C(=O)O[C@@]2(C)C(=O)C=C3C=C(C)OC=C3[C@H]12` [CHERMESINONE B], the IC50 in experiment [2] turned out to be 0.8 µg/mL (≈ 2.53 µM).
As for `C=C1CCC[C@]2(C)[C@H]3COC(=O)[C@H]3CC[C@@]12O`, in experiment [3], the IC50 was 2.96 µg/mL.
Turning to `CC[C@H](C)[C@@H](O)C(=O)[C@H]1C2=COC(C)=CC2=CC(=O)[C@@]1(C)O`, the pIC50 in experiment [1] was 6.30.
As to `C[C@]1(O)CC2=C(C(=O)c3c(O)cc(O)cc3C2=O)[C@H](O)[C@H]1O`, in [2], the IC50 came to 2.59 µg/mL (≈ 8.46 µM).
`COC(=O)/C(C)=C/COc1cc(=O)oc(/C=C/C=C/C=C/[C@H]2O[C@H]3O[C@H](C)[C@](C)(O)[C@@]3(C)[C@H]2O)c1C`: the pEC50 in [4] is 5.05.
Take `CCCCCCCC/C=C\CCCCCCCC(=O)N[C@H](C(=O)N1C[C@H](C)C[C@H]1C(=O)N[C@H](C(=O)N[C@@H](CCOC(C)=O)C(=O)N[C@@H](C)C=O)C(C)C)[C@@H](C)O` (Oleoyl-T[Pro(4R-Me)]V[hSer](Ac)A-aldehyde): the pIC50 in experiment [5] is 6.82. Also, the pEC50 in experiment [6] was 5.30.
Turning to `COc1cc(O)c2c(c1)C(=O)C1=C(C[C@@H](O)[C@@](C)(O)C1)C2=O` [ALTERSOLANOL B], in experiment [2], the IC50 came to 7.82 µg/mL (≈ 25.7 µM).
Consider `CC(C)[C@@H]1NC(=O)[C@@H](C[C@@]2(O)c3ccccc3N3C(=O)C(C)(C)N[C@@H]32)n2c1nc1ccccc1c2=O`, for which the pEC50 in experiment [7] is 5.33.
As to `COc1ccc2oc3cc(C)c(O)c(CO)c3c(=O)c2c1OC`, the pIC50 in experiment [3] was 5.66.
Take `O=C(C(=O)c1c[nH]c2ccccc12)c1c[nH]c2ccccc12`: the pEC50 in experiment [6] is 5.38.
For `C/C=C(\C)[C@@H]1C(C)=C[C@@H]2CC(=O)C[C@H](C)[C@H]2[C@@H]1/C=C/C=C/C(=O)O`, in experiment [8], the pIC50 is 4.93.
In the case of `COc1cccc2oc3cc(C)c(O)c(CO)c3c(=O)c12`, in [3], the pIC50 is 5.33.
Regarding `COc1cc(O)c2c(c1)C(=O)C1=C(C2=O)[C@H](O)[C@@H](O)[C@@](C)(O)C1`, the IC50 in experiment [2] came out at 8.35 µg/mL (≈ 26.1 µM).
Regarding `CC[C@H]1O[C@@H]2O[C@H](/C=C/C=C/C=C/c3oc(=O)cc(OC/C=C(\C)C(=O)OC)c3C)[C@H](O)[C@]2(C)[C@@]1(C)O`, the pEC50 in experiment [9] was 5.46; in experiment [4], 5.21.
In the case of `CC[C@@H]1N[C@@H]2N(C1=O)c1ccccc1[C@@]2(O)C[C@@H]1C(=O)NC(=C(C)C)c2nc3ccccc3c(=O)n21`, the pEC50 in [10] is 3.89.
In the case of `CC(=O)OC/C=C(\C)[C@@H]1C(C)=C[C@@H]2CC[C@H](O)[C@H](C)[C@H]2[C@@H]1/C=C/C=C/C(=O)O`, the pIC50 in experiment [8] was 4.87.
For `C[C@H]1CCC/C=C/[C@@H]2C[C@H](O)C[C@H]2[C@H](O)/C=C/C(=O)O1` [BREFELDIN A], the pIC50 in experiment [11] is 7.26.
`CC1(C)C(=O)N2c3ccccc3[C@@]3(C[C@H]4n5c(nc6ccccc6c5=O)C(=O)C(C)(C)[C@@]4(O)O3)[C@@H]2N1S(C)(=O)=O`: the pEC50 in experiment [10] is 3.96.
Take `C=C(C)C#CC1=C[C@@H]2O[C@@H](C(C)(C)O)C[C@]23O[C@@H]3[C@H]1O`: the pIC50 in experiment [1] is 4.79.
